From ChEMBL document CHEMBL6153061, “Sialyl Lewisx Glycomimetics as E- and P-Selectin Antagonists Targeting Hyperinflammation” (ACS Med Chem Lett, 2025)
Active and inactive are the calls of the source.

Columns and labels:
P-selectin = biological target: T1, P-selectin (Homo sapiens, UniProt P16109); test: Binding affinity to recombinant human P-selectin assessed as dissociation constant by surface plasmon resonance (SPR) analysis
T1 sequence (P16109 whole entry): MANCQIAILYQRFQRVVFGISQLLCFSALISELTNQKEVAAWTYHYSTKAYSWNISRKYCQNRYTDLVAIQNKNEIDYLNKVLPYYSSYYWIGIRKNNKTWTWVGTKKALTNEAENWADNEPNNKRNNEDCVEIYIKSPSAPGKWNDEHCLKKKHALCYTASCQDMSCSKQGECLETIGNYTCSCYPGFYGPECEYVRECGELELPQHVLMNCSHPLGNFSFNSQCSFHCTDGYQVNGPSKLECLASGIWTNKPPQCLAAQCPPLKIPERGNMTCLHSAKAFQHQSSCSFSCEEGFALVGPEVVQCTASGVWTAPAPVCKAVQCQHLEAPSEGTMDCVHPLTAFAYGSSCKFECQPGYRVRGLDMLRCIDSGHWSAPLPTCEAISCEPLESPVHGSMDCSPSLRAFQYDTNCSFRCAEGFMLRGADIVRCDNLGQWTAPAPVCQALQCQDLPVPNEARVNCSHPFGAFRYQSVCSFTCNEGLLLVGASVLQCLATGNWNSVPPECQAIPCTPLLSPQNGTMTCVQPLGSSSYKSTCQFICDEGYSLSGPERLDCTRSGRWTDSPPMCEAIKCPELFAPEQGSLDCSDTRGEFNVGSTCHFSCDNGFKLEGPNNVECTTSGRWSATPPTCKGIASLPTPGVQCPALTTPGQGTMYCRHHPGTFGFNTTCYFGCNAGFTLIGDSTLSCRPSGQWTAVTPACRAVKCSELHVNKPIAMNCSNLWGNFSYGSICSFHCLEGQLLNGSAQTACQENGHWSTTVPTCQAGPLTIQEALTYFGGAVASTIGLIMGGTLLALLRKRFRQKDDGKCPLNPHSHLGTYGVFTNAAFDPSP

E-selectin = biological target: T2, E-selectin (Homo sapiens, UniProt P16581); test: Binding affinity to recombinant human E-selectin assessed as dissociation constant by surface plasmon resonance (SPR) analysis
T2 sequence (P16581 whole entry): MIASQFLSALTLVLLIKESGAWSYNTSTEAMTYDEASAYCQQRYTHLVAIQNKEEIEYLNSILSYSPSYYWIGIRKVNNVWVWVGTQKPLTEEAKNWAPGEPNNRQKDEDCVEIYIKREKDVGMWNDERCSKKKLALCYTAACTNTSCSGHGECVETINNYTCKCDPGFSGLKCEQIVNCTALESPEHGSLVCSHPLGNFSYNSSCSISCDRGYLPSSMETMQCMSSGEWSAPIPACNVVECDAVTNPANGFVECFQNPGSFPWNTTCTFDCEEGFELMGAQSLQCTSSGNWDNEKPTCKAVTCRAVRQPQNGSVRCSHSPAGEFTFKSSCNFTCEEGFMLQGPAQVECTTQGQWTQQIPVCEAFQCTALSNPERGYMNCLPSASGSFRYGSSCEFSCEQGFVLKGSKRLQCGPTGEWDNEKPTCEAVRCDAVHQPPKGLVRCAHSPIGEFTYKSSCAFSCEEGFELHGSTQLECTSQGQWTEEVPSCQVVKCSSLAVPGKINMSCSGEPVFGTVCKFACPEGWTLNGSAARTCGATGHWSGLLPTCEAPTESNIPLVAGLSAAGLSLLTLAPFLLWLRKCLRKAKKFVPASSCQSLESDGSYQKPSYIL

Mus musculus [1] = test: (§1) Immunosuppressive effect in thioglycolate-induced hyper-inflammatory C57BL/6 wild type mouse model assessed as reduction in neutrophil level in […] peritoneal cavity at 2.5 micromol/kg, iv pre-administered for 10 min followed by thioglycolate administration for 10 min and further incubated with compound for 1 hr 40 min by flow cytometry based in vivo cell recruitment assay; type: functional, organism-based; conditions: dose 2.5 µmol/kg, time 2.0 hrs
Mus musculus [2] = test: (§2) Immunosuppressive effect in thioglycolate-induced hyper-inflammatory C57BL/6 wild type mouse model assessed as effect on CD11b+ level in […] peritoneal cavity at 2.5 micromol/kg, iv pre-administered 10 min followed by thioglycolate administration measured after 10 min by flow cytometry based in vivo cell recruitment assay; type: functional, organism-based; conditions: dose 2.5 µmol/kg, time 20.0 min
Mus musculus [3] = test: Immunosuppressive activity in thioglycolate induced hyper-inflammatory C57BL/6 wild type mouse model assessed as effect on neutrophil levels at 2 micromol/kg, iv pre-administered 10 min followed by thioglycolate administration measured after 10 min by flow cytometry analysis; type: functional, organism-based; conditions: dose 2.0 µmol/kg, time 20.0 min
Mus musculus [4] = test: as §2, with “PSGL-1+” for “CD11b+”, “micromol/kg,iv” for “micromol/kg, iv”; type: functional, organism-based; conditions: dose 2.5 µmol/kg, time 20.0 min
Mus musculus [5] = test: as §2, with “macrophage/monocytes” for “CD11b+”; type: functional, organism-based; conditions: dose 2.5 µmol/kg, time 20.0 min
Mus musculus [6] = test: Immunosuppressive effect in thioglycolate-induced hyper-inflammatory C57BL/6 wild type mouse model assessed as effect on neutrophil level in […] peritoneal cavity at 2.5 micromol/kg, iv measured after 2 hrs by flow cytometry based in vivo cell recruitment assay; type: functional, organism-based; conditions: dose 2.5 µmol/kg
Mus musculus [7] = test: as §1, with “thioglycolate induced” for “thioglycolate-induced”, “CD11b+” for “neutrophil”, “micromol/kg,iv” for “micromol/kg, iv”, “cytometry” for “cytometry based”; type: functional, organism-based; conditions: dose 2.5 µmol/kg, time 2.0 hrs
Mus musculus [8] = test: Immunosuppressive activity in thioglycolate induced hyper-inflammation in C57BL/6 wild type mouse model assessed as reduction in macrophages/monocytes levels at 2 micromol/kg, iv pre-administered for 10 min followed by thioglycolate administration for 10 min and further incubated with compound for 1 hr 40 min by flow cytometry in vivo cell recruitment assay; type: functional, organism-based; conditions: dose 2.0 µmol/kg, time 2.0 hrs
Mus musculus [9] = test: (§3) Immunosuppressive effect in thioglycolate-induced hyper-inflammatory C57BL/6 wild type mouse model assessed as reduction in neutrophil level in skin of peritoneal cavity at 2.5 micromol/kg, iv administered after 24 hrs of thioglycolate injection in peritoneal cavity followed by after 2 hrs treated at 2.5 micromol/kg, ip and followed by after 6 hrs treated at 2.5 micromol/kg, ip and followed by after 15 hrs treated at 2.5 micromol/kg, ip and measured after 3 hrs by flow cytometry based in vivo cell recruitment assay; type: functional, organism-based; conditions: time 26.0 hrs
Mus musculus [10] = test: as §3, with “PSGL-1+” for “neutrophil”; type: functional, organism-based; conditions: time 26.0 hrs
Mus musculus [11] = test: as §3, with “CD11b+” for “neutrophil”; type: functional, organism-based; conditions: time 26.0 hrs
Mus musculus [12] = test: as §3, with “macrophage/monocyte” for “neutrophil”; type: functional, organism-based; conditions: time 26.0 hrs
Mus musculus [13] = test: as §1, with “thioglycolate induced” for “thioglycolate-induced”, “PSGL-1 positive cell” for “neutrophil”; type: functional, organism-based; conditions: dose 2.5 µmol/kg, time 2.0 hrs

CC(C)OC(=O)[C@H](O[C@@H]1O[C@@H](C)[C@@H](O)[C@@H](O)[C@@H]1O)[C@@H](O[C@@H]1O[C@H](CO)[C@H](O)[C@H](O[C@H](Cc2ccccc2)C(=O)O)[C@H]1OC(=O)c1ccccc1)C(=O)OC(C)C
1000 nM: Kd (P-selectin) | Kd (E-selectin)

CC(C)OC(=O)[C@H](O[C@@H]1O[C@@H](C)[C@@H](O)[C@@H](O)[C@@H]1O)[C@@H](O[C@@H]1O[C@H](COC(=O)c2ccccc2)[C@@]2(O)CC[C@@H](C(=O)O)O[C@H]2[C@H]1OC(=O)c1ccccc1)C(=O)OC(C)C
active: Activity (Mus musculus [1]) | Activity (Mus musculus [7]) | Activity (Mus musculus [8]) | Activity (Mus musculus [9]) | Activity (Mus musculus [10]) | Activity (Mus musculus [11]) | Activity (Mus musculus [12])
Active; Lowering Neutrophil Levels: Activity (Mus musculus [6])
inactive: Activity (Mus musculus [2]) | Activity (Mus musculus [3]) | Activity (Mus musculus [4]) | Activity (Mus musculus [5])

CC(C)OC(=O)[C@H](O[C@@H]1O[C@@H](C)[C@@H](O)[C@@H](O)[C@@H]1O)[C@@H](O[C@@H]1O[C@H](COC(=O)c2ccccc2)[C@@]2(O)CC[C@H](C(=O)O)O[C@H]2[C@H]1OC(=O)c1ccccc1)C(=O)OC(C)C
inactive: Activity (Mus musculus [6])

CC(C)OC(=O)[C@H](O[C@@H]1O[C@@H](C)[C@@H](O)[C@@H](O)[C@@H]1O)[C@@H](O[C@@H]1O[C@H](CO)[C@@]2(O)CC[C@@H](c3nnn[nH]3)O[C@@H]2[C@H]1OC(=O)c1ccccc1)C(=O)OC(C)C
active: Activity (Mus musculus [1]) | Activity (Mus musculus [7]) | Activity (Mus musculus [8]) | Activity (Mus musculus [9]) | Activity (Mus musculus [10]) | Activity (Mus musculus [11]) | Activity (Mus musculus [12])
inactive: Activity (Mus musculus [2]) | Activity (Mus musculus [3]) | Activity (Mus musculus [4]) | Activity (Mus musculus [5])

CC(=O)N[C@@H]1[C@@H](O[C@@H]2O[C@@H](C)[C@@H](O)[C@@H](O)[C@@H]2O)[C@H](O[C@@H]2O[C@H](CO)[C@H](O)[C@H](O[C@]3(C(=O)O)C[C@H](O)[C@@H](NC(C)=O)[C@H]([C@H](O)[C@H](O)CO)O3)[C@H]2O)[C@@H](CO)O[C@H]1O
inactive: Activity (Mus musculus [6])

CC(C)OC(=O)[C@H](O[C@@H]1O[C@@H](C)[C@@H](O)[C@@H](O)[C@@H]1O)[C@@H](O[C@@H]1O[C@H](COC(=O)c2ccccc2)[C@@]2(O)CC[C@@H](c3nnn[nH]3)O[C@@H]2[C@H]1OC(=O)c1ccccc1)C(=O)OC(C)C
active: Activity (Mus musculus [1]) | Activity (Mus musculus [7]) | Activity (Mus musculus [8]) | Activity (Mus musculus [13]) | Activity (Mus musculus [9]) | Activity (Mus musculus [10]) | Activity (Mus musculus [11]) | Activity (Mus musculus [12])
inactive: Activity (Mus musculus [2]) | Activity (Mus musculus [3]) | Activity (Mus musculus [4]) | Activity (Mus musculus [5])
